Source: patent US5559028A, “Methods of enhancing or antigen presentation to T cells inhibiting” (Antigen Express, Inc., priority 1993, dated 1996)
Where no end group is shown, it is not given here.

Assays:
[1] = target: cathepsin D (Homo sapiens, UniProt P07339); conditions: cited from earlier work
[2] = tested on: Ii; conditions: cited from earlier work
[3] = target: cathepsin B (Homo sapiens, UniProt P07858); conditions: cited from earlier work
[4] = tested on: E^k -restricted murine T cell hybridoma, TPc9.1; experiment: Enhancement of presentation of pigeon cytochrome C(81-104) by fixed CH27 cells to TPc9.1 T hybridoma (IL-2/IL-4, HT-2 indicator); assay type: cell-based
Method: The assay was carried out as follows. 5×10^4 paraformaldehyde-fixed CH27 B lymphoma cells (antigen presenting cells) were incubated in 96-well plates with 5×10^4 TPc9.1 T hybridoma cells (irradiated 2200 rads) for 24 hrs in the presence of: no peptides, 50 μM Ii peptide only, 6 μM pigeon cytochrome C(81-104) peptide only, and 50 μM Ii peptide plus 6 μM pigeon cytochrome C(81-104) peptide. Each condition was assayed in sextuplet. After incubation, the response of the T cell hybridoma was determined by measuring the IL-2/IL-4 secreted during the 24 hr culture. The supernatants were collected and were tested for IL-2/IL-4 content by the ability to support the growth of the IL-2/ IL-4-dependent cell line HT-2 as measured by [^3 H]thymidine incorporation. The values presented in Table V are the CPM×10^-3 incorporated in the HT-2 indicator assay.
The enhancement of responses to pigeon cytochrome C peptide (81-104) by Ii (148-164) and Ii (78-92) was assayed as a function of concentration of the added Ii peptide (Table VI). The values in the Table represent the % enhancement of the pigeon cytochrome C(81-104) peptide-specific, E^k -restricted response by the TPc9.1 murine T cell hybridoma (T) to the peptide presented by paraformaldehyde-fixed CH27 B lymphoma cells (APC). Culture supernatants were collected and were tested for IL-2/IL-4 content by the ability to support the growth of the Il-2/IL-4-dependent cell Line HT-2 as measured by the incorporation of [^3 H]thymidine. The % enhancement was calculated as: [(CPM of T+APC+peptide+Ii peptide / CPM of T+APC+peptide)×100]-100.

[5] = tested on: cathepsin D; experiment: Cathepsin D digestion of wild type and mutant Ii in trimers with HLA-DR1 α,β chains (SDS-PAGE of fragments); assay type: biochemical; conditions: pH 5.0, 30 min, room temperature, Jesthom microsomal membrane proteins
Method: The lowest level of cathepsin D seen to cleave Ii was 0.1 U/ml. Solubilized microsomal membrane proteins from [^35 S]methionine-labeled Jesthom cells were treated with the cathepsin D (concentrations 0, 0.01, 0.05, 0.1, 0.5, 2.5, 10.0 U/ml) at pH 5.0 for 30 min at room temperature. At the end of the incubation, the enzyme was inactivated and immunoprecipitates with anti-class II mAb, IVA12 or with anti-Ii mAb, VIC-Y1 were formed. The immunoprecipitated samples were analyzed by SDS-PAGE and autoradiography. In a second experiment, when the lowest level of cathepsin D (0.1 U/ml) seen to cleave Ii was added to the assay for peptide binding in the presence of varying concentrations of cathepsin B (0.02-0.5 U/ml), the net level of peptide binding was enhanced about 3 times that seen without cathepsin D, as judged by densitometry of the autoradiographs. For this experiment iodinated HSAB-MA(18-29) peptide and unradiolabeled microsomal membranes were incubated with or without 0.1 U/ml cathepsin D for 10 min or 30 min in the presence of varying amounts of cathepsin B (0.02, 0.1, or 0.5 U/ml). After subsequent photoactivation and immunoprecipitation with anti-class II mAb, the samples were subjected to SDS-PAGE and autoradiography.
CD digestions were carried out according to Reyes et al. (1991). […]

Sequence of cathepsin D (Homo sapiens, UniProt P07339) (P07339 65-412, species assumed): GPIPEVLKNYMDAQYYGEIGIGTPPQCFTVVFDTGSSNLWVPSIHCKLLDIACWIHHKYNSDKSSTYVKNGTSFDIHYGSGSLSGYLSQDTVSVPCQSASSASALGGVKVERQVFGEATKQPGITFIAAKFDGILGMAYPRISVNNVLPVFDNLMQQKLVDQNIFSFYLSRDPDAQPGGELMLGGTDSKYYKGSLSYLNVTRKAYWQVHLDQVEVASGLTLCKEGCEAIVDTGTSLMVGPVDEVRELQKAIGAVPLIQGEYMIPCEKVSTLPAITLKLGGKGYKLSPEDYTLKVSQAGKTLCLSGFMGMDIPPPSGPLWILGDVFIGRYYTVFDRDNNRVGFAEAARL

Compound | inhibition of cathepsin D [1] | antigen charging in vitro [2] | final proteolysis of Ii [2] | inhibition of cathepsin B [3] | % enhancement of the pigeon cytochrome C(81-104) peptide-specific response ([4]; Ii peptide 1 μM) | % enhancement of the pigeon cytochrome C(81-104) peptide-specific response ([4]; Ii peptide 10 μM) | % enhancement of the pigeon cytochrome C(81-104) peptide-specific response ([4]; Ii peptide 50 μM) | % enhancement of the pigeon cytochrome C(81-104) peptide-specific response ([4]; Ii peptide 100 μM) | lowest level of cathepsin D seen to cleave Ii [5]
CC(=O)N[C@@H](CC(C)C)C(=O)N[C@@H](CC(C)C)C(=O)N[C@H](C=O)CCCNC(=N)N [leupeptin] | not | blocks antigen charging in vitro | limits the final proteolysis of Ii to p21 and p14 fragments | inhibited |  |  |  |  | 
ENLRHLKNTMETLDWKV [Ii (148-164), ENLRHLKNTMETLDWKV] |  |  |  |  | 0% | 19% | 91% | 140% | 
YRMKLPKPPKPVSKMR [Ii (78-92), YRMKLPKPPKPVSKMR] |  |  |  |  | 40% | 101% | 187% | 170% | 
cathepsin D: aspartyl protease |  |  |  |  |  |  |  |  | 0.1 U/ml
